This is an account of results in patent publication US20260193298A1, “SYNTHETIC PEPTIDE FOR USE IN AN IMMUNOMOLECULAR ASSAY” (BIOMÉRIEUX, priority 2022, published 2026).

Non-standard residues stand in square brackets, D forms with d. No end group written: not given here. Ado = 8-amino-2,4-dioxa octanoic acid

Assay [1] relates to 5F12 monoclonal antibody (anti-Lys tag). Kind of assay: Indirect ELISA on plates coated with Bitag peptide, detection with anti-Lys tag antibody 5F12. The class given is binding, mouse. The conditions noted are these: 5 μg versus 1 μg of peptide. How it is done:
(§1) Enzyme Linked Immuno-Sorbant Assays (ELISA). After overnight sensitization with peptides diluted at 5 μg/mL in PBS buffer, pH 7.4 (Euromedex, Souffelweyersheim, France), Nunc 96-well plates (Thermofisher) were saturated for 1 h at room temperature (RT) with PBS1x-Bovine Serum Albumin 5% (BSA, Sigma-Aldrich, Saint Louis, MI, USA). After 4 washes with PBS1x-Tween20 0.1%, PBS1x-BSA 1% buffer containing the anti-tag antibody (at 1 μg/mL) was added and incubated for 1 h at 37° C. The developing with PNPP substrates (Thermofisher) was performed after 30 min of incubation at 37° C. with a 1/50 000 dilution in PBS-BSA-0.5% of an alkaline phosphatase (AP)-labeled streptavidin (Jackson Immunoresearch, Ely, UK). The absorbance level (optical density, OD) was red at 405 nm (OD405) using an Infinite M Nano+ microplate reader (Tecan, Mannedorf, Switzerland). All samples were tested in duplicate and in three independent experiments.
Selection and validation of the Bitag peptides and the proximity probes. First, to check that the anti-tag antibodies do bind to their epitopes in the context of the Bitag peptides, indirect ELISA was performed by sensitizing multiwall plates with either Bitag 1 or Bitag 2 peptides at two concentrations (1 μg/mL and 5 μg/mL). […]
On the technique in general: An ELISA detects its analyte on a solid surface through an enzyme-linked reagent.

Assay [2] deals with 18D12 monoclonal antibody (anti-His tag). Kind of assay: Indirect ELISA on plates coated with Bitag peptide, detection with anti-His tag antibody. Format: binding, mouse. How it is done: as §1
(§2) Selection and validation of the Bitag peptides and the proximity probes. First, to check that the anti-tag antibodies do bind to their epitopes in the context of the Bitag peptides, indirect ELISA was performed by sensitizing multiwall plates with either Bitag 1 or Bitag 2 peptides at two concentrations (1 μg/mL and 5 μg/mL). For the two coated peptides, 18D12 monoclonal antibody (anti-His tag) or 2G4 and 5F12 monoclonal antibodies (anti-Lys tag) were used for detection with an AP-labelled anti-mouse conjugate.

Assay [3] concerns 2G4 monoclonal antibody (anti-Lys tag). Nature of the assay: Indirect ELISA on plates coated with Bitag peptide, detection with anti-Lys tag antibody 2G4. Format: binding, mouse. How it is done:
as §1, §2

Assay [4] concerns internal control proximity probes (18D12 anti-His tag and 2G4 anti-Lys tag antibodies coupled to MML or MMC oligonucleotides). Kind of assay: Dual-recognition immunoassay (PEA) of Bitag peptide spiked in PBS-BSA buffer, qPCR readout. To be noted: for Delta-Ct0-50: 0 vs 50 ng/mL peptide. The class given is binding, mouse. How it is done: Proximity probes. Proximity probes were prepared by covalently linking purified PCT monoclonal antibodies to HPLC-purified oligonucleotides. […] Synthesis, modifications and HPLC-purification of the oligonucleotides were all performed by Integrated DNA Technologies (Louvain, Belgium). Antibody-oligonucleotide conjugates were generated using commercial Thunderlink kit (Abcam, Cambridge, UK), following the manufacturer's instructions, using a 5:1 oligonucleotide-to-antibody ratio. Conjugation quality was checked by running conjugates on a reducing 4-12% SDS-PAGE (Thermofisher, Waltham, MA, USA) followed by Coomassie Blue staining (Thermofisher) as recommended by the supplier's instructions (Abcam).
(§3) Proximity Extension Assay (PEA™). The Proximity extension assay protocol and the different buffers were taken over from the protocol initially described by Lundberg et al. and also from a recently developed shorter protocol (unpublished results). Proximity extension assay was performed in specific multi-well plates (Hard-Shell 96-Well Clear shell PCR Plates, BioRad, Hercule, CA, USA), in triplicate. Briefly, 5 μL of sample (PBS1x-0.1% BSA buffer or human EDTA plasma with or without rPCT and/or IC peptide) were mixed with 5 μL of a mix of the two PEA™ conjugates (500 pM each) diluted in the probe incubation buffer and incubated at 37° C. for 60 min. After probe incubation, a dilution buffer containing 40 mM of each dNTP were added. After a 5 minutes incubation step at 37° C., 96 μl extension mix containing 26 U/mL of T4 DNA Polymerase (Thermofisher) were added and incubated at 37° C. for an additional 3 minutes, followed by a heat inactivation step at 80° C.
(§4) Detection by qPCR. For qPCR detection, 4 μL of extension products were transferred to a qPCR plate and mixed with 36 μL of qPCR mix (SYBRGREEN mix, Bio-Rad) containing 0.6 μM of each PCR primer. A one-step qPCR was run with initial denaturation at 95° C. for 3 min, followed by 1 sec of denaturation at 95° C. and 10 sec annealing/extension at 63° C. for 40 cycles. Finally, a melt step was performed by increasing the temperature gradually from 60° C. to 95° C. at 0.5° C./sec.
Second, to determine the best combination of spacer size and oligonucleotide length, proximity probes were tested successively on the two Bitag 1 and Bitag 2 peptides. The first type of probes, called MML, featured a longer version of the oligonucleotides (49 and 56 bases), whilst the second type of probes, called MMC, featured a shorter version of the oligonucleotides (29 and 31 bases). For both MML and MMC, the size of the complementary sequence located at the 3′-end of each oligonucleotide was 9 nucleotides.
FIG. 2 summarizes the dual-recognition immunoassay results obtained for three concentrations of Bitag peptide (0, 5 and 50 ng/mL) spiked in PBS-BSA buffer.

The test system of assay [5] is internal control proximity probes. Kind of assay: Internal control dual-recognition immunoassay in human plasma specimens spiked with rPCT and Bitag peptide. Format: binding, mouse. The conditions noted are these: Bitag peptide at 50 ng/mL. The method, then:
as §3
(§5) Detection by qPCR. For qPCR detection, 4 μL of extension products were transferred to a qPCR plate and mixed with 36 μL of qPCR mix (SYBRGREEN mix, Bio-Rad) containing 0.6 μM of each PCR primer. A one-step qPCR was run with initial denaturation at 95° C. for 3 min, followed by 1 sec of denaturation at 95° C. and 10 sec annealing/extension at 63° C. for 40 cycles. […]

The test system of assay [6] is internal control proximity probes MMC (18D12 and 2G4). Nature of the assay: Dual-recognition immunoassay (PEA) of Bitag 2 peptide spiked in human plasma, MMC probes. Format: binding, mouse. The conditions noted are these: for loss of Delta-Ct in human plasma compared to PBS-BSA: pool of three plasma specimens. How it is done: Whole blood specimens were obtained from healthy donors from the French National Blood Bank (EFS, Etablissement Français du Sang, Lyon, France). Samples were selected on the basis of a negative PCT test. Fresh blood was centrifuged for five min at 20 000 g, at 4° C., using a refrigerated microcentrifuge (Eppendorf 5424R, Montesson, France). After centrifugation, the supernatant, which corresponds to the plasma, was recovered for Dual-recognition immunoassay and stored at 4° C. before use. For all biological samples, informed consent was obtained for any experimentation. All experiments were performed in compliance with the relevant laws and institutional guidelines and in accordance with the ethical standards of the Declaration of Helsinki.
as §3, §4
In order to confirm these preliminary results obtained on peptide diluted in the PBS-BSA buffer, PEA™ was performed, using MMC probes, on human plasma (pool of three plasma specimens) spiked with four concentrations of Bitag 2 peptide, from 0 to 500 ng/mL. The results are illustrated in FIG. 3a. Overall, while the assay presented a similar dynamic to that obtained in PBS-BSA buffer, Delta-Ct values appeared to be slightly lower compared to those obtained in PBS-BSA (loss of 0.26 and 0.36 for 5 ng/mL and 50 ng/mL of peptide, respectively). In addition, for 500 ng/mL, a significant loss of dynamic was observed (Delta-Ct50-500 of 0.9 versus Delta-Ct5-50 of 2.72).
Third, a Bitag 2 concentration suitable for internal control Dual-recognition immunoassay had to be chosen. […] To confirm the specificity of the results obtained with 50 ng/mL of Bitag 2 peptide, human plasma specimens were tested by Dual-recognition immunoassay after addition of 50 ng/mL of peptide (n=25 samples) or without peptide complementation (n=13 samples). According to a Mann-Whitney test, the difference between the two groups was significant (P<0.001).

Assay [7] has as its system internal control proximity probes. Nature of the assay: Procalcitonin and internal control DRI in parallel in PBS-BSA, PCR with internal control primer set. The conditions noted are these: rPCT 0 or 0.1 ng/mL; peptide 0 to 160 ng/mL. Also on record: species or system mouse. The method, then: as §3, §5
For assay [8], the system named is procalcitonin (rPCT). Nature of the assay: Procalcitonin and internal control DRI in parallel in PBS-BSA, PCR with primers specific of the PCT DRI probes. Also on record: species or system human. The conditions noted are these: 0 ng/mL PCT, PCT primer set. The method, then:
as §3, §5

The test system of assay [9] is procalcitonin (rPCT). Nature of the assay: Interference of Bitag 2 peptide with procalcitonin dual-recognition immunoassay in PBS-BSA buffer. Also on record: species or system human. The method, then: as §3, §4
Interference between procalcitonin and internal control. […] The results are illustrated in FIG. 4. For 0.1 ng/mL of rPCT, no significant difference was observed across the range of peptide concentrations added to the sample (mean=34.38±0.15).

With “MRGSHHHHHHNNGKKKKKKSV (MRGSHHHHHH[Ado][Ado]GKKKKKKSV-NH2) [Bitag 1, His tag and Lys tag separated by two Ado spacers; N is 8-amino-2,4-dioxa octanoic acid]”, the “increase of OD405 for 5 μg of peptide” value in assay [1] is recorded as “+0.074”; in assay [2] (5 μg versus 1 μg of peptide, 18D12), “+0.262”; in assay [3] (5 μg versus 1 μg of peptide, 2G4), “+0.089”. The OD405 in assay [2] (1 μg of Bitag 1 peptide, detection with 18D12) is listed as 0.617; in assay [3] (1 μg of Bitag 1 peptide, detection with 2G4) it was 0.993. In addition, the “signal in the presence of peptide relative to signal without peptide” value in assay [2] (18D12 antibody, 1 μg of Bitag 1) was determined as 5.42 times; in assay [3] (2G4 antibody, 5 μg of Bitag 1) it was 9.17 times. Besides, the “Delta-Ct for MMC compared with MML probes” value in assay [4] (PBS-BSA buffer) is listed as “higher”.
For the sequence “MRGSHHHHHHNNNGKKKKKKSV (MRGSHHHHHH[Ado][Ado][Ado]GKKKKKKSV-NH2) [Bitag 2, His tag and Lys tag separated by 3 Ado spacers; N is 8-amino-2,4-dioxa octanoic acid]”, the “Ct mean value for the internal control” value is listed as 33.53±0.11 in assay [5] (0 ng/mL of PCT) and 34.23±0.40 in assay [5] (10 ng/mL of PCT). Moreover, the “loss of Delta-Ct in human plasma compared to PBS-BSA” value in assay [6] (5 ng/mL of peptide, MMC probes) worked out at 0.26; in [6] (50 ng/mL of peptide, MMC probes) it was 0.36. The same sequence gave a Delta-Ct5-50 in assay [6] (human plasma, 5 vs 50 ng/mL peptide, MMC probes) of 2.72. The Delta-Ct50-500 in [6] (human plasma, 50 vs 500 ng/mL peptide, MMC probes) is reported as 0.9. Further, in assay [6] (short (MMC) oligonucleotides), the “dynamic range of detection” value is “about 3 orders of magnitude”. The “interference of procalcitonin on Ct with internal control PCR primer set” value in assay [7] was “no interference”. Besides, the “Delta-Ct between sample with 40 ng of peptide and sample without peptide (background noise)” value in the assay with procalcitonin (rPCT) [8] is given as 1.4. For the same sequence, the “Ct of procalcitonin DRI” value in the assay with procalcitonin (rPCT) [9] (0 ng/mL rPCT, 160 ng/mL of peptide) is listed as 35.9. Besides, the “Ct of procalcitonin DRI, average value for the other peptide concentrations” value in the assay on procalcitonin (rPCT) [9] (0 ng/mL rPCT, peptide concentrations other than 160 ng/mL) amounted to 36.98. For the same sequence, the “Ct of procalcitonin DRI, mean across the range of peptide concentrations” value with procalcitonin (rPCT) [9] (0.1 ng/mL rPCT, Bitag 2 from 0 to 200 ng/mL) was determined as 34.38±0.15. Besides, the “gain in Delta-Ct for MMC versus MML” value in assay [4] (5 ng/mL of peptide, PBS-BSA buffer) is reported as 2.32; in [4] (50 ng/mL of peptide, PBS-BSA buffer), 1.86. Besides, the Delta-Ct0-50 in assay [4] (MMC probes, PBS-BSA buffer) is given as 7.08; in [4] (MML probes, PBS-BSA buffer), 5.22. In addition, in [4] (peptide concentrations tested (5 and 50 ng/mL), PBS-BSA), the “Delta-Ct of the combination of MMC oligonucleotides and peptide, compared with the other combinations” value is “highest Delta-Ct”.
Turning to “MRGSHHHHHHSVDESNNNGKKKKKKSVDESL (MRGSHHHHHHSVDES[Ado][Ado][Ado]GKKKKKKSVDESL-NH2) [Bitag 2′, long His tag and long Lys tag, three spacer units; N is 8-amino-2,4-dioxa octanoic acid]”, the “results obtained with Bitag 2 peptide repeated with this peptide” value in [4] (data not shown) is “reproduced and confirmed”.
